Columns and labels:
[1] = target: T1, Estrogen receptor (Homo sapiens) (UniProt P03372); assay: Agonist activity at human ERalpha expressed in HEK293T cells after 24 hrs by ERE-based dual luciferase reporter gene assay relative to E2; assay type: cell-based
T1 sequence (whole entry): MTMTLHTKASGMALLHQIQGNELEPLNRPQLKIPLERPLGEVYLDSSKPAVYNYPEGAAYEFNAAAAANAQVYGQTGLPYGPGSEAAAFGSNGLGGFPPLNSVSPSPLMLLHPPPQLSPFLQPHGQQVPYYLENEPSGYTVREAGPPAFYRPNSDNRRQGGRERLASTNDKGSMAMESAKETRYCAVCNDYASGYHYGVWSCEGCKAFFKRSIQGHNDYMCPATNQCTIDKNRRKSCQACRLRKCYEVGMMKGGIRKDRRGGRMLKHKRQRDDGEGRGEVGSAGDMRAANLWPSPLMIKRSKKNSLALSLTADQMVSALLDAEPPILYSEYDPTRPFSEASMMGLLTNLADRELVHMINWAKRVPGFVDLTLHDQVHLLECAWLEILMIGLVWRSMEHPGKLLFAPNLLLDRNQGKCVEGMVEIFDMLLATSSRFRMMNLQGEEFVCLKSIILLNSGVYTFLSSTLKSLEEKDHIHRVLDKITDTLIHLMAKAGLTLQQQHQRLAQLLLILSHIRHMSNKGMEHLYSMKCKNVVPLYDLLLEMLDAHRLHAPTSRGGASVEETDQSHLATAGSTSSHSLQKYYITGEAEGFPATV

Estrogen receptor beta [2] = target: T2, Estrogen receptor beta (Homo sapiens, UniProt Q92731); assay: Agonist activity at human ERbeta expressed in HEK293T cells after 24 hrs by ERE-based dual luciferase reporter gene assay; assay type: cell-based
Estrogen receptor beta [3] = target: T2, Estrogen receptor beta; assay: Agonist activity at human ERbeta expressed in HEK293T cells after 24 hrs by ERE-based dual luciferase reporter gene assay relative to E2; assay type: cell-based
Estrogen receptor [4] = target: T3, Estrogen receptor (Homo sapiens, UniProt P03372); assay: Antagonist activity at human ERalpha expressed in HEK293T cells after 24 hrs by ERE-based dual luciferase reporter gene assay; assay type: cell-based
T3 sequence (P03372 whole entry): T1 sequence (whole entry)

[5] = target: T1, Estrogen receptor (Homo sapiens); assay: Antagonist activity at human ERalpha expressed in HEK293T cells after 24 hrs by ERE-based dual luciferase reporter gene assay relative to E2; assay type: cell-based
Estrogen receptor beta [6] = target: T2, Estrogen receptor beta; assay: Antagonist activity at human ERbeta expressed in HEK293T cells after 24 hrs by ERE-based dual luciferase reporter gene assay relative to E2; assay type: cell-based; design: concentration or dose not given beside the values
[7] = Inhibition of NFkappaB in mouse RAW 264.7 cells assessed as reduction in LPS induced NO production after 24 hrs by Griess assay; assay type: cell-based; conditions: RAW264.7, 24 h
Mus musculus = species on record: Mus musculus; assay: Inhibition of NFkappaB in mouse RAW 264.7 cells assessed as reduction in LPS induced NO production at 10 uM after 24 hrs by Griess assay relative to control; assay type: cell-based
MCF7 = assay: cells; conditions: Homo sapiens, MCF7, 72 h
Estrogen receptor beta [8] = target: T2, Estrogen receptor beta; assay: Antagonist activity at human ERbeta expressed in HEK293T cells after 24 hrs by ERE-based dual luciferase reporter gene assay; assay type: cell-based
Estrogen receptor [9] = target: T3, Estrogen receptor; assay: Agonist activity at human ERalpha expressed in HEK293T cells after 24 hrs by ERE-based dual luciferase reporter gene assay; assay type: cell-based

T2 sequence (Q92731 whole entry): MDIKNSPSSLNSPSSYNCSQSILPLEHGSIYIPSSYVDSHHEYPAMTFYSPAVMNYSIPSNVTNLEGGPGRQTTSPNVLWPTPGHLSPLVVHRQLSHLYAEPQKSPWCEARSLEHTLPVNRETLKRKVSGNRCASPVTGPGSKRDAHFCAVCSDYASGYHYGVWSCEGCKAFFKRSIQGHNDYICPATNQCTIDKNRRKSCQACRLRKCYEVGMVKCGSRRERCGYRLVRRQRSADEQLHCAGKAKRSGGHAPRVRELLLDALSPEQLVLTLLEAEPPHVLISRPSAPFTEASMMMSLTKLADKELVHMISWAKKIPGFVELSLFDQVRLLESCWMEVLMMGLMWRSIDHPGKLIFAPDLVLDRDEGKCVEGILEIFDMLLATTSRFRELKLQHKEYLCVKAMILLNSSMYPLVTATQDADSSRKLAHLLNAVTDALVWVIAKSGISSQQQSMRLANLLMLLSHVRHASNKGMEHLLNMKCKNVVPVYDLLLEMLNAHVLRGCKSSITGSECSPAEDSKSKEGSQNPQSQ

| SMILES | Efficacy [1] | EC50 (Estrogen receptor beta [2]) | Efficacy (Estrogen receptor beta [3]) | IC50 (Estrogen receptor [4]) | Efficacy [5] | Efficacy (Estrogen receptor beta [6]) | IC50 [7] | inhibition (Mus musculus) | IC50 (MCF7) | IC50 (Estrogen receptor beta [8]) | EC50 (Estrogen receptor [9]) |
| --- | --- | --- | --- | --- | --- | --- | --- | --- | --- | --- | --- |
| O=S(=O)(Oc1ccc(F)cc1)C1CC2OC1C(c1ccc(/C=C/c3cc(O)cc(O)c3)cc1)=C2c1ccc(O)cc1 (stereo not drawn) | 16% | 276 nM | 45% | 5 nM | 7% | 98% | 8880 nM | 71.9% | 13100 nM | – | – |
| Cc1cccc(OS(=O)(=O)C2CC3OC2C(c2ccc(/C=C/c4cc(O)cc(O)c4)cc2)=C3c2ccc(O)cc2)c1 (stereo not drawn) | 22% | – | -3% | 947 nM | 2% | 46% | 2410 nM | 68.4% | 16300 nM | 3110 nM | – |
| O=S(=O)(Oc1ccc(-c2ccccc2)cc1)C1CC2OC1C(c1ccc(/C=C/c3cc(O)cc(O)c3)cc1)=C2c1ccc(O)cc1 (stereo not drawn) | 41% | 43 nM | 82% | – | 68% | 97% | 18700 nM | 43% | 7800 nM | – | 4930 nM |
| O=S(=O)(Oc1ccccc1)C1CC2OC1C(c1ccc(/C=C/c3cc(O)cc(O)c3)cc1)=C2c1ccc(O)cc1 (stereo not drawn) | 29% | 658 nM | 37% | 428 nM | 4% | 76% | 6020 nM | 70.9% | 20100 nM | – | – |
| O=S(=O)(Oc1cccc(Cl)c1)C1CC2OC1C(c1ccc(/C=C/c3cc(O)cc(O)c3)cc1)=C2c1ccc(O)cc1 (stereo not drawn) | 16% | 2 nM | 60% | 932 nM | 4% | 91% | 2140 nM | 62.1% | 12900 nM | – | – |
| O=S(=O)(Oc1cccc(O)c1)C1CC2OC1C(c1ccc(/C=C/c3cc(O)cc(O)c3)cc1)=C2c1ccc(O)cc1 (stereo not drawn) | 5% | – | 17% | 6020 nM | 17% | 106% | > 100000 nM | 12.3% | 23000 nM | – | – |
| COc1cc(/C=C/c2ccc(OS(=O)(=O)[C@@H]3C[C@@H]4O[C@H]3C(c3ccc(O)cc3)=C4c3ccc(O)cc3)cc2)cc(OC)c1 | – | – | – | 3 nM | 11% | – | 300 nM | – | 2310 nM | – | – |
| O=S(=O)(Oc1ccccc1Cl)C1CC2OC1C(c1ccc(/C=C/c3cc(O)cc(O)c3)cc1)=C2c1ccc(O)cc1 (stereo not drawn) | 79% | 63 nM | 25% | 166 nM | 49% | 45% | 5000 nM | 60.9% | 40400 nM | 4310 nM | 273 nM |
| O=S(=O)(Oc1ccc(/C=C/c2ccccc2)cc1)C1CC2OC1C(c1ccc(O)cc1)=C2c1ccc(O)cc1 (stereo not drawn) | 6% | 31 nM | 25% | 149 nM | 54% | 74% | 2230 nM | 72.4% | 8300 nM | – | – |
| O=S(=O)(Oc1ccc(O)cc1)C1CC2OC1C(c1ccc(/C=C/c3cc(O)cc(O)c3)cc1)=C2c1ccc(O)cc1 (stereo not drawn) | 12% | 355 nM | 51% | 54 nM | 8% | 88% | – | 41% | 14100 nM | – | – |
| O=S(=O)(Oc1ccc(Cl)cc1)C1CC2OC1C(c1ccc(/C=C/c3cc(O)cc(O)c3)cc1)=C2c1ccc(O)cc1 (stereo not drawn) | -5% | – | 7% | 62 nM | 11% | 33% | 6500 nM | 62.1% | 17900 nM | 1020 nM | – |
| O=S(=O)(Oc1ccc(/C=C/c2cc(O)cc(O)c2)cc1)C1CC2OC1C(c1ccc(O)cc1)=C2c1ccc(O)cc1 (stereo not drawn) | -9% | 194 nM | 51% | 19 nM | 7% | 99% | 930 nM | 81% | 10500 nM | – | – |
